Source: patent US8288410B2, “3-substituted quinolinium and 7H-indolo[2,3-c]quinolinium salts as new antiinfectives” (Florida Agricultural and Mechanical University, priority 2008, dated 2012)
Counter-ions that a name gives are not always drawn. Like-named read-outs stand apart in the source and are kept apart here.

Legend:
[1] = system: Candida albicans ATTC 90028; assay: Antifungal susceptibility testing, Candida albicans; format: cell-based
Outline: (§1)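 Modified NCCLS broth microdilution, samples serially diluted from 20 μg/mL top concentration, inocula per 0.5 McFarland (C. albicans in SDB or RPMI 1640; C. neoformans in SDB; A. fumigatus in YM broth or RPMI-1640 + 5% Alamar Blue). IC50 from percent growth versus concentration; MIC read visually as lowest concentration without detectable growth.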

[2] = system: Cryptococcus neoformans ATCC 90113; assay: Antifungal susceptibility testing, Cryptococcus neoformans; format: cell-based
Outline: as §1

[3] = system: Aspergillus fumigatus ATCC 90906; assay: Antifungal susceptibility testing, Aspergillus fumigatus; format: cell-based; conditions: for IC50: ATCC90906, read-out: A fu IC50; for IC50 / A fu IC50: Aspergillus fumigatus
Outline: as §1

[4] = system: MRSA; assay: Antibacterial susceptibility testing, MRSA; format: cell-based, methicillin resistant Staphylococcus aureus
Outline: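 Each plate carried growth (saline only), solvent and blank (media only) controls, and Ciprofloxacin was the drug control. Plates were read before and after final incubation. MIC, the lowest concentration showing no detectable growth, was judged visually, and IC50 was obtained by plotting percent growth against concentration.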

[5] = system: Vero Cells; assay: Cytotoxicity, Vero cells; format: cell-based

Structure (SMILES): FC(F)(F)c1ccccc1Sc1cc2ccccc2[n+](CCCCCc2ccccc2)c1.[I-]
- melting point: 227 to 229 °C

Structure (SMILES): C[n+]1cccc(N(CCCCCC2CCCCC2)c2ccc3ccccc3c2)c1 [EVK-III-002]
- IC50 ([1]; ATTC90028, Table 2, read-out: Ca IC50): 0.6 µg/mL
- MFC ([1]; ATTC90028, Table 2, read-out: Ca MFC): 13 µg/mL
- MIC ([1]; ATTC90028, Table 2, read-out: Ca MIC): 1.6 µg/mL
- IC50 ([2]; ATCC90113, Table 2, read-out: Cn IC50): 0.85 µg/mL
- MFC ([2]; ATCC90113, Table 2, read-out: Cn MFC): 1.6 µg/mL
- MIC ([2]; ATCC90113, Table 2, read-out: Cn MIC): 1.6 µg/mL
- A fu MFC [3]: 6.3 µg/mL
- A fu MIC [3]: 1.6 µg/mL
- IC50 ([3]; Table 2): 1 µg/mL
- IC50 ([4]; Staphylococcus aureus, Table 2, read-out: MRSA IC50): 0.45 µg/mL
- MIC ([4]; Staphylococcus aureus, Table 2, read-out: MRSA MIC): 0.78 µg/mL
- TC50 Vero Cells ([5]; Table 2): 6.0 µg/mL

Structure (SMILES): FC(F)(F)c1ccc2[nH]c3c[n+](CCCCCC4CCCCC4)c4ccccc4c3c2c1.[I-] [JRE-3-4-1]
- Ca IC50 ([1]; Table 3): 2.0 µg/mL
- Ca MFC ([1]; Table 3): 13 µg/mL
- Ca MIC ([1]; Table 3): 6.3 µg/mL
- Cn IC50 ([2]; Table 3): 9.0 µg/mL
- Cn MFC ([2]; Table 3): — ((-) = >20 μg/mL)
- Cn MIC ([2]; Table 3): — ((-) = >20 μg/mL)
- A fu IC50 ([3]; Table 3): 10 µg/mL
- MRSA IC50 ([4]; Table 3): 1.0 µg/mL
- MRSA MFC ([4]; Table 3): 3.1 µg/mL
- MRSA MIC ([4]; Table 3): 1.6 µg/mL
- TC50 Vero Cells ([5]; Table 3): 10.5 µg/mL

Structure (SMILES): Clc1ccc2c(c1)[nH]c1c[n+](CCCCCC3CCCCC3)c3ccccc3c12.[I-] [JRE-3-10-1]
- Ca IC50 ([1]; Table 3): >20 µg/mL
- Ca MFC ([1]; Table 3): — ((-) = >20 μg/mL)
- Ca MIC ([1]; Table 3): — ((-) = >20 μg/mL)
- Cn IC50 ([2]; Table 3): >20 µg/mL
- Cn MFC ([2]; Table 3): — ((-) = >20 μg/mL)
- Cn MIC ([2]; Table 3): — ((-) = >20 μg/mL)
- A fu IC50 ([3]; Table 3): >20 µg/mL
- MRSA IC50 ([4]; Table 3): 5.0 µg/mL
- MRSA MFC ([4]; Table 3): — ((-) = >20 μg/mL)
- MRSA MIC ([4]; Table 3): 25 µg/mL
- TC50 Vero Cells ([5]; Table 3): 9.3 µg/mL

Structure (SMILES): C[n+]1cc(N(CCCCCC2CCCCC2)c2ccc(Cl)cc2)cc2ccccc21.[I-] [JRE-4-9-1]
- Ca IC50 ([1]; Table 2): 0.45 µg/mL
- Ca MFC ([1]; Table 2): 5.0 µg/mL
- Ca MIC ([1]; Table 2): 1.3 µg/mL
- Cn IC50 ([2]; Table 2): 0.40 µg/mL
- Cn MFC ([2]; Table 2): 2.5 µg/mL
- Cn MIC ([2]; Table 2): 0.63 µg/mL
- A fu MFC [3]: 10 µg/mL
- A fu MIC [3]: 1.3 µg/mL
- A fu IC50 ([3]; Table 2): 0.80 µg/mL
- MRSA IC50 ([4]; Table 2): 0.40 µg/mL
- MRSA MFC ([4]; Table 2): 0.63 µg/mL
- MRSA MIC ([4]; Table 2): 0.63 µg/mL
- TC50 Vero Cells ([5]; Table 2): 10 µg/mL

Structure (SMILES): FC(F)(F)c1ccccc1Sc1cc2ccccc2[n+](CCCCC[n+]2c3ccccc3cc3[nH]c4ccccc4c32)c1 [XYZ-IV-52]
- IC50 ([1]; ATTC90028, Table 1, read-out: Ca IC50): > 20 µg/mL
- MFC ([1]; ATTC90028, Table 1, read-out: Ca MFC): > 20 µg/mL
- MIC ([1]; ATTC90028, Table 1, read-out: Ca MIC): > 20 µg/mL
- IC50 ([2]; ATCC90113, Table 1, read-out: Cn IC50): 4 µg/mL
- MFC ([2]; ATCC90113, Table 1, read-out: Cn MFC): > 20 µg/mL
- MIC ([2]; ATCC90113, Table 1, read-out: Cn MIC): 10 µg/mL
- A fu MIC [3]: 10 µg/mL
- IC50 ([3]; Table 1): 5 µg/mL
- IC50 ([4]; Staphylococcus aureus, Table 1, read-out: MRS IC50): 2 µg/mL
- MFC ([4]; Staphylococcus aureus, Table 1, read-out: MRS MFC): > 20 µg/mL
- MIC ([4]; Staphylococcus aureus, Table 1, read-out: MRS MIC): 5 µg/mL
- TC50 Vero Cells ([5]; Table 1): NC (NC = Not toxic at 10 μg/mL)
- melting point: 154 to 156 °C

Structure (SMILES): c1ccc(Nc2cc3ccccc3[n+](CCCCCC3CCCCC3)c2)cc1 (as salt: iodide) [JRE-3-19-1]
- melting point: 156 to 158 °C

Structure (SMILES): Clc1cccc(Nc2cc3ccccc3[n+](CCCCCC3CCCCC3)c2)c1.[I-] [JRE-3-88-1]
- Ca IC50 ([1]; Table 2): 2.0 µg/mL
- Ca MFC ([1]; Table 2): 13 µg/mL
- Ca MIC ([1]; Table 2): 6.3 µg/mL
- Cn IC50 ([2]; Table 2): 2.0 µg/mL
- Cn MFC ([2]; Table 2): 50 µg/mL
- Cn MIC ([2]; Table 2): 3.1 µg/mL
- A fu MIC [3]: 6.3 µg/mL
- A fu IC50 ([3]; Table 2): 3.5 µg/mL
- MRSA IC50 ([4]; Table 2): 0.55 µg/mL
- MRSA MFC ([4]; Table 2): 1.6 µg/mL
- MRSA MIC ([4]; Table 2): 0.78 µg/mL
- TC50 Vero Cells ([5]; Table 2): 12.5 µg/mL

Structure (SMILES): Clc1ccc(Nc2cc3ccccc3[n+](CCCCCC3CCCCC3)c2)cc1.[I-] [JRE-2-83-1]
- Ca IC50 ([1]; Table 2): 2.0 µg/mL
- Ca MFC ([1]; Table 2): — ((-) = >20 μg/mL)
- Ca MIC ([1]; Table 2): 25 µg/mL
- Cn IC50 ([2]; Table 2): 1.0 µg/mL
- Cn MFC ([2]; Table 2): — ((-) = >20 μg/mL)
- Cn MIC ([2]; Table 2): 1.6 µg/mL
- A fu IC50 ([3]; Table 2): — ((-) = >20 μg/mL)
- MRSA IC50 ([4]; Table 2): 0.50 µg/mL
- MRSA MFC ([4]; Table 2): 1.6 µg/mL
- MRSA MIC ([4]; Table 2): 0.78 µg/mL
- TC50 Vero Cells ([5]; Table 2): 12.5 µg/mL
